Source: ChEMBL document CHEMBL3826948, “Alkyl substituted aminal derivatives of HCV NS5A inhibitor MK-8742” (Bioorg Med Chem Lett, 2016)
pEC50: −log10 of the molar value.

How the values were obtained:
[1] = Clearance in Sprague-Dawley rat at 10 mg/kg po or 2 mg/kg iv; type: ADME, organism-based; details: in vivo
[2] = AUC in Sprague-Dawley rat at 10 mg/kg, po; type: ADME, organism-based; details: in vivo
[3] = Inhibition of NS5A in HCV genotype 3a assessed as replicon RNA levels by real time PCR based cell based assay; design: species or system Hepatitis C virus subtype 3a; details: Hepatitis C virus
[4] = Cmax in Sprague-Dawley rat at 10 mg/kg, po; type: ADME, organism-based; design: dose 10 mg/kg, route oral; details: in vivo
[5] = Oral bioavailability in Sprague-Dawley rat at 10 mg/kg; type: ADME, organism-based; details: in vivo
[6] = Half life in Sprague-Dawley rat at 10 mg/kg po or 2 mg/kg iv; type: ADME, organism-based; details: in vivo
[7] = Inhibition of NS5A in HCV genotype 1b assessed as replicon RNA levels by real time PCR based cell based assay; design: species or system Hepatitis C virus subtype 1b; details: Hepatitis C virus
[8] = Inhibition of NS5A in HCV genotype 2a assessed as replicon RNA levels by real time PCR based cell based assay; design: species or system Hepatitis C virus subtype 2a; details: Hepatitis C virus
[9] = Inhibition of NS5A in HCV genotype 2b assessed as replicon RNA levels by real time PCR based cell based assay; design: species or system Hepatitis C virus subtype 2b; details: Hepatitis C virus
[10] = Inhibition of NS5A in HCV genotype 1a assessed as replicon RNA levels by real time PCR based cell based assay; design: species or system Hepatitis C virus subtype 1a; details: Hepatitis C virus
[11] = Inhibition of NS5A in HCV genotype 4a assessed as replicon RNA levels by real time PCR based cell based assay; design: species or system Hepatitis C virus subtype 4a; details: Hepatitis C virus
[12] = Oral bioavailability in Sprague-Dawley rat at 5 mg/kg; type: ADME, organism-based; details: in vivo
[13] = AUC in Sprague-Dawley rat at 5 mg/kg, po; type: ADME, organism-based; details: in vivo
[14] = Half life in Sprague-Dawley rat at 5 mg/kg po or 2 mg/kg iv; type: ADME, organism-based; details: in vivo
[15] = Cmax in Sprague-Dawley rat at 5 mg/kg, po; type: ADME, organism-based; design: dose 5 mg/kg, route oral; details: in vivo
[16] = Clearance in Sprague-Dawley rat at 5 mg/kg po or 2 mg/kg iv; type: ADME, organism-based; details: in vivo
[17] = Inhibition of NS5A in HCV genotype 1b; design: species or system Hepatitis C virus subtype 1b
[18] = Inhibition of NS5A in HCV genotype 1a; design: species or system Hepatitis C virus subtype 1a
Nonstructural protein 5A [19] = target: Nonstructural protein 5A (Hepatitis C virus, UniProt Q5L478, Y93H); test: Inhibition of NS5A in HCV genotype 1a Y93H mutant; design: species or system Hepatitis C virus subtype 1a
Nonstructural protein 5A [20] = target: Nonstructural protein 5A (Hepatitis C virus, UniProt Q5L478, L31V); test: Inhibition of NS5A in HCV genotype 1a L31V mutant; design: species or system Hepatitis C virus subtype 1a
[21] = Inhibition of NS5A in HCV genotype 3a; design: species or system Hepatitis C virus subtype 3a
[22] = Inhibition of NS5A in HCV genotype 2b; design: species or system Hepatitis C virus subtype 2b
[23] = Inhibition of NS5A in HCV genotype 2a; design: species or system Hepatitis C virus subtype 2a
[24] = Inhibition of NS5A in HCV genotype 4a; design: species or system Hepatitis C virus subtype 4a

Chain of Nonstructural protein 5A (Hepatitis C virus, UniProt Q5L478, Y93H) (Q5L478 entry or part of it Y93H): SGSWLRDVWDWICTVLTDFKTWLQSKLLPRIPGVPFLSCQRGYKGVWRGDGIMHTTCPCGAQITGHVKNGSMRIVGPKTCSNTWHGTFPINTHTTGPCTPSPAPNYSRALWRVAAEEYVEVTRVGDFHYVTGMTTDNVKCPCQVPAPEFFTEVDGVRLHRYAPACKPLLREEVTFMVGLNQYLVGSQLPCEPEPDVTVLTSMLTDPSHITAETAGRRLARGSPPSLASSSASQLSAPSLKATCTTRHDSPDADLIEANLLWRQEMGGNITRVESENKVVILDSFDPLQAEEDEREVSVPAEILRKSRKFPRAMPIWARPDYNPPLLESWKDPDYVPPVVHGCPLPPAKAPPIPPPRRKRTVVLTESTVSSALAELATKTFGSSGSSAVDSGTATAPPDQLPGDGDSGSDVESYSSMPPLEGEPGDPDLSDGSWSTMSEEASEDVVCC

Compound	pEC50 [3]	pEC50 [7]	pEC50 [8]	pEC50 [9]	pEC50 [10]	pEC50 [11]	further results
COC(=O)N[C@H](C(=O)N1CCC[C@H]1c1ncc(-c2ccc3c(c2)OC(C)n2c-3cc3cc(-c4cnc([C@@H]5CCCN5C(=O)[C@@H](NC(=O)OC)C(C)C)[nH]4)ccc32)[nH]1)C(C)C (stereo partly specified)	10.05	11.52	11.15	7.64	11.52	10.52	clearance [1]: 8.5 mL/min/kg; AUC [2]: 6.2 µM·h; Cmax [4]: 990 nM; bioavailability [5]: 26%; half-life [6]: 2.2 h
CCCCC1Oc2cc(-c3cnc([C@@H]4CCCN4C(=O)[C@@H](NC(=O)OC)C(C)C)[nH]3)ccc2-c2cc3cc(-c4cnc([C@@H]5CCCN5C(=O)[C@@H](NC(=O)OC)C(C)C)[nH]4)ccc3n21 (stereo partly specified)	9.70	11.70	11.15	8.40	11.70	11.30	
COC(=O)N[C@H](C(=O)N1CCC[C@H]1c1ncc(-c2ccc3c(c2)OC(CC(F)(F)F)n2c-3cc3cc(-c4cnc([C@@H]5CCCN5C(=O)[C@@H](NC(=O)OC)C(C)C)[nH]4)ccc32)[nH]1)C(C)C (mixture of isomers)	9.52	11.70	10.70	8.30	11.22	10.70	
COC(=O)N[C@H](C(=O)N1CCC[C@H]1c1ncc(-c2ccc3c(c2)OC(CC(C)C)n2c-3cc3cc(-c4cnc([C@@H]5CCCN5C(=O)[C@@H](NC(=O)OC)C(C)C)[nH]4)ccc32)[nH]1)C(C)C (mixture of isomers)	9.40	12.15	11.10	8.00	12.10	10.70	
COC(=O)N[C@H](C(=O)N1CCC[C@H]1c1ncc(-c2ccc3c(c2)cc2n3C3(CCCCC3)Oc3cc(-c4cnc([C@@H]5C[C@@H](F)CN5C(=O)[C@@H](NC(=O)OC)C(C)C)[nH]4)cc(F)c3-2)[nH]1)C(C)C	8.22	12.00	9.70	7.02	11.10	9.70	
COC(=O)N[C@H](C(=O)N1CCC[C@H]1c1ncc(-c2ccc3c(c2)OC(C2CCC(F)(F)CC2)n2c-3cc3cc(-c4cnc([C@@H]5CCCN5C(=O)[C@@H](NC(=O)OC)C(C)C)[nH]4)ccc32)[nH]1)C(C)C (mixture of isomers)	9.10	12.10	11.15	8.40	11.70	10.15	
CCC1Oc2cc(-c3cnc([C@@H]4CCCN4C(=O)[C@@H](NC(=O)OC)C(C)C)[nH]3)ccc2-c2cc3cc(-c4cnc([C@@H]5CCCN5C(=O)[C@@H](NC(=O)OC)C(C)C)[nH]4)ccc3n21 (stereo partly specified)	9.52	11.70	12.00	8.70	11.70	10.40	bioavailability [12]: 43%; AUC [13]: 8.4 µM·h; half-life [14]: 3.6 h; Cmax [15]: 1220 nM; clearance [16]: 5.2 mL/min/kg
COC(=O)N[C@H](C(=O)N1CCC[C@H]1c1ncc(-c2ccc3c(c2)cc2n3C3(CCCC3)Oc3cc(-c4cnc([C@@H]5C[C@@H](F)CN5C(=O)[C@@H](NC(=O)OC)C(C)C)[nH]4)cc(F)c3-2)[nH]1)C(C)C	8.52	11.70	11.40	7.23	11.30	10.40	
COC(=O)N[C@H](C(=O)N1CCC[C@H]1c1nc(-c2ccc3c(c2)O[C@@H](c2ccccc2)n2c-3cc3cc(-c4c[nH]c([C@@H]5CCCN5C(=O)[C@@H](NC(=O)OC)C(C)C)n4)ccc32)c[nH]1)C(C)C [ELBASVIR]							pEC50 [17]: 11.52; pEC50 [18]: 11.40; pEC50 (Nonstructural protein 5A [19]): 8.70; pEC50 (Nonstructural protein 5A [20]): 9.30; pEC50 [21]: 10.70; pEC50 [22]: 8.52; pEC50 [23]: 11.52; pEC50 [24]: 11.52
COC(=O)N[C@H](C(=O)N1CCC[C@H]1c1ncc(-c2ccc3c(c2)OC(C2CCC2)n2c-3cc3cc(-c4cnc([C@@H]5CCCN5C(=O)[C@@H](NC(=O)OC)C(C)C)[nH]4)ccc32)[nH]1)C(C)C (mixture of isomers)	9.00	11.30	11.22	8.05	11.10	10.22	
COC(=O)N[C@H](C(=O)N1CCC[C@H]1c1ncc(-c2ccc3c(c2)OC(C2CC2)n2c-3cc3cc(-c4cnc([C@@H]5CCCN5C(=O)[C@@H](NC(=O)OC)C(C)C)[nH]4)ccc32)[nH]1)C(C)C (stereo partly specified)	10.00	11.40	11.70	9.00	11.52	10.70	bioavailability [12]: 27%; AUC [13]: 4.4 µM·h; half-life [14]: 3.4 h; Cmax [15]: 740 nM; clearance [16]: 6.2 mL/min/kg
COC(=O)N[C@H](C(=O)N1CCC[C@H]1c1ncc(-c2ccc3c(c2)cc2n3C3(CCC3)Oc3cc(-c4cnc([C@@H]5C[C@@H](F)CN5C(=O)[C@@H](NC(=O)OC)C(C)C)[nH]4)cc(F)c3-2)[nH]1)C(C)C	9.22	12.30	10.52	7.36	11.70	10.40	
CCCC1Oc2cc(-c3cnc([C@@H]4CCCN4C(=O)[C@@H](NC(=O)OC)C(C)C)[nH]3)ccc2-c2cc3cc(-c4cnc([C@@H]5CCCN5C(=O)[C@@H](NC(=O)OC)C(C)C)[nH]4)ccc3n21 (stereo partly specified)	9.52	11.70	11.52	8.52	11.52	10.70	
COC(=O)N[C@H](C(=O)N1CCC[C@H]1c1ncc(-c2ccc3c(c2)OC(C2CCCC2)n2c-3cc3cc(-c4cnc([C@@H]5CCCN5C(=O)[C@@H](NC(=O)OC)C(C)C)[nH]4)ccc32)[nH]1)C(C)C (stereo partly specified)	9.52	11.52	10.15	8.70	11.70	11.30	
COC(=O)N[C@H](C(=O)N1CCC[C@H]1c1ncc(-c2ccc3c(c2)OC(C2CCC4(CC2)CC4)n2c-3cc3cc(-c4cnc([C@@H]5CCCN5C(=O)[C@@H](NC(=O)OC)C(C)C)[nH]4)ccc32)[nH]1)C(C)C (stereo partly specified)	9.22	10.70	> 9.70	8.70	> 10.70	> 9.70	
COC(=O)N[C@H](C(=O)N1CCC[C@H]1c1ncc(-c2ccc3c(c2)OC(C2CCCCC2)n2c-3cc3cc(-c4cnc([C@@H]5CCCN5C(=O)[C@@H](NC(=O)OC)C(C)C)[nH]4)ccc32)[nH]1)C(C)C (stereo partly specified)	9.10	11.70	11.52	9.00	11.30	10.40	
COC(=O)N[C@H](C(=O)N1CCC[C@H]1c1ncc(-c2ccc3c(c2)OCn2c-3cc3cc(-c4cnc([C@@H]5CCCN5C(=O)[C@@H](NC(=O)OC)C(C)C)[nH]4)ccc32)[nH]1)C(C)C							pEC50 [17]: 11.10; pEC50 [18]: 11.00; pEC50 (Nonstructural protein 5A [19]): 7.00; pEC50 (Nonstructural protein 5A [20]): 8.52; pEC50 [21]: 9.30; pEC50 [22]: 7.51; pEC50 [23]: 11.15; pEC50 [24]: 10.22
